The record followed here is paper PMC6121902, “Conjugation with Dihydrolipoic Acid Imparts Caffeic Acid Ester Potent Inhibitory Effect on Dopa Oxidase Activity of Human Tyrosinase” (International Journal of Molecular Sciences, 2018).

Holding throughout (assay type): biochemical
The target in test [1] is T1, tyrosinase from HBL human melanoma cells (Homo sapiens, UniProt P14679).
T1 construct: endogenous in cells; host or cells: HBL human melanoma cells (detergent-solubilized cell extract)
T1 sequence (P14679 19-529): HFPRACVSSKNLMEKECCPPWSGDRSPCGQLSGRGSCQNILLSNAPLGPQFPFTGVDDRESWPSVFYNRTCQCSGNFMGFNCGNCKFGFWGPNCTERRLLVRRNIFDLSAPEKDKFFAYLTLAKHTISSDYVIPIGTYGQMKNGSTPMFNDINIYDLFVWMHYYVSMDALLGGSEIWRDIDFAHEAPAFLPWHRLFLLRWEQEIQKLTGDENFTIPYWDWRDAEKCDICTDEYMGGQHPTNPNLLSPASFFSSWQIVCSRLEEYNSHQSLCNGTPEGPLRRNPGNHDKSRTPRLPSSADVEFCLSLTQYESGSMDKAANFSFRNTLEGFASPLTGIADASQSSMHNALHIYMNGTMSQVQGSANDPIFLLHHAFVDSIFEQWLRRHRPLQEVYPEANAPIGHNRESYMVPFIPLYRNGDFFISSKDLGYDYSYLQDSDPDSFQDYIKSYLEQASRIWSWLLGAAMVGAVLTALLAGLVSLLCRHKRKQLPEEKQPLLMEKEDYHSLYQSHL
Kind of test: DO activity of human tyrosinase in HBL cell extracts (MBTH assay, 490 nm). To be noted: for Km: read-out: Km (apparent). The method, then: In further experiments, the effect of LCAME and LCA was investigated on extracts from HBL human melanoma cells expressing tyrosinase, and the inhibition of DO activity was evaluated. DO activity was determined according to Winder and Harris with some minor modifications: cell extracts were incubated with 3-methyl-2-benzothiazolinone hydrazone (MBTH) and absorbance at 490 nm was measured every 10 min for 1 h.
Cells were solubilized in 1% Igepal, 1% phenylmethylsulfonyl fluoride, 50 mM phosphate buffer (pH 6.8) and centrifuged at 2000 rpm for 5 min.
DO activity determinations were performed according to Winder and Harris with minor modifications. Briefly, cell extracts (usually 50–100 µg protein/assay) were incubated with 5 mM MBTH and 2.5 mM L-DOPA in 50 mM phosphate buffer pH 6.8 in the presence of the indicated concentrations of the compound of choice in a 96-wells plate. DO activity was measured spectrophotometrically in a microplate reader every ten minutes for one hour and was expressed as the slopes calculated with the GraphPad Prism 7 software (Linear Regression, San Diego, CA, USA).
For the analysis of kinetic parameters, the assays were run as above, using different concentrations of L-DOPA (from 0.1 to 2.0 mM) and of the inhibitor (0, 10 and 25 μM) to build the Lineweaver–Burk plot.

In test [2] the test system is mushroom tyrosinase. Kind of test: Mushroom tyrosinase DO activity inhibition (dopachrome formation at 475 nm, L-DOPA substrate). To be noted: LCAME 0.050 μM. As for the experimental part:
(§1) The inhibition properties of LCAME were preliminarily investigated on mushroom tyrosinase by spectrophotometric monitoring of dopachrome formation, a method which is routinely used for evaluation of the activity of potential tyrosinase inhibitors. L-DOPA was used as the substrate to test DO activity while L-tyrosine was used to test TH activity. LCAME was incubated in 50 mM phosphate buffer in the presence of mushroom tyrosinase (20 U/mL) at room temperature. After 10 min, L-DOPA or L-tyrosine (1 mM final concentration) were added and the absorbance at 475 nm was measured at different times over 10 min. For comparative purposes the effects of CAME were evaluated as well. Stock methanolic solutions of LCAME or CAME, ranging in concentration from 0.02 to 20 mM concentration were prepared dissolving a proper amount of the compound of interest in methanol. 100 μL of these solutions were added to 2 mL of 50 mM phosphate buffer at pH 6.8 (final concentrations range: 0.001–1 mM), in the presence or in the absence of 20 U/mL mushroom tyrosinase. After 10 min incubation at room temperature, 20 μL of a 100 mM solution of L-DOPA or L-tyrosine in 0.6 M HCl, were added (final concentration: 1 mM). Spectrophotometric analysis was performed by measuring the absorbance at 475 nm for 10 min at 2 min intervals. In control experiments, the reaction was run in the absence of LCAME. When required, the experiment was performed as above but adding L-DOP A soon after the addition of LCAME (0.050 μM). In separate experiments, the assay was run as above with LCAME or CAME at 100 μM, in the presence or absence of L-DOPA, and after 10 min the mixture was analyzed by HPLC.

In a further test the test system is T2, human tyrosinase.
T2 construct: The oxidation of L-DOPA by cell-free HBL cell extracts was monitored spectrophotometrically at 490 nm; endogenous in cells; host or cells: HBL human melanoma cells (detergent-solubilized cell extract)
Description: Substrate test with HBL cell lysates and MBTH (absorbance at 490 nm). To be noted: different concentrations, over 1 h.

The target in test [3] is mushroom tyrosinase. Kind of test: Mushroom tyrosinase TH activity inhibition (dopachrome formation at 475 nm, L-tyrosine substrate). To be noted: 10 min pre-incubation, L-tyrosine 1 mM, tyrosinase 20 U/mL, pH 6.8. As for the experimental part: as §1, with “After 10 min incubation at room temperature, 20 μL of a 100 mM solution of L-DOPA or L-tyrosine in 0.6 M HCl, were added (final concentration: 1 mM).” left out, “In control experiments, the reaction was run in the absence of LCAME. When required, the experiment was performed as above but adding L-DOP A soon after the addition of LCAME (0.050 μM).” left out

Each structure is given as a SMILES string. Several values for one entry are separate records, joined by “and”; a condition that tells them apart may be missing. Equal entries are not always repeated. Where two headings read alike, the source gives them in different places.

On to `COC(=O)/C=C/c1ccc(O)c(O)c1SCCC(S)CCCCC(=O)O` (stereo not drawn) [LCAME, 2-S-lipoylcaffeic acid methyl ester], for which the IC50 in test [1] (DO activity, HBL cell extracts, L-DOPA 2.5 mM, read-out: IC50 (Mean ± SEM)) was 30 µM and 30.1 µM; at mushroom tyrosinase [3] it was 0.83 ± 0.09 µM. The Ki in test [1] (DO activity, competitive model Km^app = Km (1 + [I]/Ki)) turned out to be 34.7 ± 1.1 µM. Besides, in test [1] (L-DOPA 0.1 to 2.0 mM, LCAME 10 or 25 μM), the “type of inhibition (Lineweaver–Burk)” value is “competitive inhibition”. In addition, the Vmax in test [1] ([LCAME] 10 μM) was 0.18 ± 0.02 ∆A490/min mg; in test [1] ([LCAME] 25 μM), 0.19 ± 0.03 ∆A490/min mg. For the same compound, the Km stood at 1430 ± 300 µM in test [1] ([LCAME] 10 μM) and 1950 ± 500 µM in test [1] ([LCAME] 25 μM). The “inhibitory effect on DO activity” value in test [1] (fixed concentration of 25 μM, HBL cell extracts) is recorded as “significant inhibitory effect”. Further, the “inhibition of DO activity” value in the test on mushroom tyrosinase [2] (10 min pre-incubation) is 50 ± 2%; with mushroom tyrosinase [2] (L-DOPA added immediately after LCAME (no pre-incubation)), 42 ± 1%. Moreover, in the test with human tyrosinase, the “change in the absorbance at 490 nm (substrate of human tyrosinase)” value is “did not induce any change”.

For orientation: IC50 means the concentration needed to halve the response being measured. As a reminder, the Km is the concentration of substrate that gives half-maximal velocity.
